Reference: patent publication US20260224652A1, “ENRICHED PELARGONIUM GRAVEOLENS EXTRACTS FOR THE TREATMENT OF TRAUMATIC BRAIN INJURIES” (THE STATE OF ISRAEL, MINISTRY OF AGRICULTURE & RURAL …, priority 2023, published 2026)
Where a name gives a salt, the structure may show the parent alone.

Tests used:
[1] = tested on: mice subjected to a closed head injury (CHI); experiment: Neurological Severity Score (NSS) after closed head injury; type: in vivo; details: oral gavage, 9 daily doses over 2 weeks starting 24 h after CHI; Pg oil 100 mg/kg, citronellol 25 mg/kg, citronellyl formate 80 mg/kg; from day 7 up to 30 days after trauma
Method: (§1) Experimental CHI was induced by using a modified weight drop device (Chen et al; Flierl et al). Briefly, under 3% isoflurane anesthesia and supplementary oxygen (confirmed by the loss of response to pinch of paw), a midline longitudinal incision is performed, and the skull is exposed. A Teflon tipped cone (2 mm diameter) is placed upside down 2 mm lateral to the midline and 2 mm posterior to the bregma in the mid-coronal plane. The head is held in place and a 95 g weight is allowed to free-fall on the cone from a pre-established height, resulting in focal injury to the left hemisphere. The height of the free-fall weight is determined by the weight of the mouse and the desired CHI severity. In the present experiments, a free-fall of 6.5-7 cm was selected to induce a moderate neurological severity injury (NSS of 6-7 at 1 hr post injury). […] At 1 h after CHI, the NSS is evaluated. […] Animals displaying apnea were monitored carefully and returned to their cage when adequate oxygenation was restored. • a. […]
The functional status of the mice was evaluated according to the neurobehavioral score, known as the Neurological Severity Score (NSS), which consists of several tests that assess reflexes, alertness, coordination, and motor abilities. […]
The neurological severity score (NSS) was determined for each of the experimental groups of mice (details as described above) starting 1 hour after the trauma.

[2] = tested on: mice subjected to a closed head injury (CHI); experiment: Barnes maze test (learning) after CHI; type: in vivo; details: acquisition days 1-4, two weeks after CHI; oral gavage, 9 daily doses; Pg oil 100 mg/kg, citronellol 25 mg/kg, citronellyl formate 80 mg/kg
Method: as §1, with “injury). Sham mice were anesthetized and subjected to the same skin incision as described above, with no further trauma.” for “injury).”
The BM test is based on the instinct of the mouse to hide when exposed to environmental disturbances and is used to test spatial learning and memory. […] For the probe trial, the latency to reaching the escape box first is recorded. […]

[3] = tested on: mice subjected to a closed head injury (CHI); experiment: Y maze spatial memory test after CHI; type: in vivo; details: 24 days after trauma; oral gavage, 9 daily doses; Pg oil 100 mg/kg, citronellol 25 mg/kg, citronellyl formate 80 mg/kg
Method: as §1, with “severity.” for “severity. In the present experiments, a free-fall of 6.5-7 cm was selected to induce a moderate neurological severity injury (NSS of 6-7 at 1 hr post injury).”
At 24 days post CHI, the Y maze spatial memory test was preformed to evaluate short term spatial memory. […] Short-term memory is reflected by the Preference index (PI), calculated as the amount of time spent in the new arm relative to the total amount of time spent in the “other” plus “new” arms. […]
The data was further analyzed by dividing the mice's performance into two groups: mice with (+) positive y-axis values (which represent a good spatial memory) and mice with negative (−) y-axis values (which represent spatial memory loss).

[4] = tested on: mice subjected to a closed head injury (CHI); experiment: Novel Object Recognition (NOR) test after CHI; type: in vivo; details: 22 days after trauma; 4 hours after object replaced; oral gavage, 9 daily doses; Pg oil 100 mg/kg, citronellol 25 mg/kg, citronellyl formate 80 mg/kg
Method: as §1, with “severity.” for “severity. In the present experiments, a free-fall of 6.5-7 cm was selected to induce a moderate neurological severity injury (NSS of 6-7 at 1 hr post injury).”
The novel object recognition (NOR test) was performed to assess short term memory 22d after trauma. […] The cumulative time spent by each mouse exploring the objects was recorded manually for a total of 5 min. […] Exploration of the object was determined as such when the mouse's nose was pointed in the direction of the object and the mouse was actively investigating it, directly touching it or being close to it. […] The time spent exploring each of the objects (novel or familiar) was recorded and calculated as the percentage of time from a total of 5 min. […]

[5] = biological target: acetyl choline esterase (Homo sapiens, UniProt P22303); details: in vitro; cited from earlier work
acetyl choline esterase, sequence (P22303 32-614): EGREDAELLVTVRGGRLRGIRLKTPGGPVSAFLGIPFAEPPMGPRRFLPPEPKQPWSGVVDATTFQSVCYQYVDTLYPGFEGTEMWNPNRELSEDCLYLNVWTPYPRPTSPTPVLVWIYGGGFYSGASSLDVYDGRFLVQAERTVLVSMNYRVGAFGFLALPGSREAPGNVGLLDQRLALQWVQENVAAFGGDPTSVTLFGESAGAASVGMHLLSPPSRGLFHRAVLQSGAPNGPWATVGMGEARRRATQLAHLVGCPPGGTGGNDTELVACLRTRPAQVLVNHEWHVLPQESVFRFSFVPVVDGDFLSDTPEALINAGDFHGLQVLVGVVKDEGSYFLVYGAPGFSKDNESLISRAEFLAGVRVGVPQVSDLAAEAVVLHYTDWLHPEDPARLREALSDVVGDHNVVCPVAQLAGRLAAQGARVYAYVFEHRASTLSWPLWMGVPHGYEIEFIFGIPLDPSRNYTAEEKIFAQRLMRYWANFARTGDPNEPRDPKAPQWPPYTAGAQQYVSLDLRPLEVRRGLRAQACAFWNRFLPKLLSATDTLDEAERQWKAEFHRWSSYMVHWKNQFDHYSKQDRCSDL

Compound | reduction in the neurological severity score (NSS) compared with vehicle treated CHI mice [1] | Barnes maze learning performance (latency to escape box) [2] | percent of mice that preferred the novel arm over the familiar arm (Y maze) [3] | preference/recognition of a novel object versus a familiar one (NOR) [4] | inhibition of acetyl choline esterase activity [5]
CC(C)=CCCC(C)CCOC=O (stereo not drawn) [citronellyl formate] | significant reduction | significant improvement, but only on day 2 | About 54% | not able to prefer/recognize a novel object | –
CC(C)=CCCC(C)CCO (stereo not drawn) [citronellol] | significant reduction | significant improvement, but only on day 2 | About 54% | not able to prefer/recognize a novel object | –
CC(C)=CCC[C@H](C)CCO [(S) (−) citronellol] | – | – | – | – | inhibits in vitro the activity of the enzyme acetyl choline esterase
